Calls of active or inactive are those of the source. No cut-off for these calls is given here.
Tests used:
Beta-secretase 1 = Beta-secretase 1 (Homo sapiens, UniProt P56817); assay: Inhibition of human BACE-1 measured after 2 hrs by FRET assay
[1] = Neurotoxicity against retinoic acid/BDNF differentiated human SH-SY5Y cells assessed as reduction in cell viability at 80 uM incubated for 24 hrs by MTT assay relative to control; assay type: toxicity, cell-based
[2] = Drug concentration in male Wistar rat brain homogenate at 20 mg/kg, po measured after 4 days; assay type: ADME, organism-based; details: time 4 day, read-out: Ct
[3] = molecular target: Amyloid-beta precursor protein (Homo sapiens) (UniProt P05067); assay: Inhibition of self induced amyloid beta (1 to 42 residues) (unknown origin) aggregation at 5 to 20 uM measured after 48 hrs by thioflavin T based fluorescence analysis relative to control; details: dose 5-20 µM
Chain of Amyloid-beta precursor protein (Homo sapiens) (P05067 whole entry, the tested form may be a part): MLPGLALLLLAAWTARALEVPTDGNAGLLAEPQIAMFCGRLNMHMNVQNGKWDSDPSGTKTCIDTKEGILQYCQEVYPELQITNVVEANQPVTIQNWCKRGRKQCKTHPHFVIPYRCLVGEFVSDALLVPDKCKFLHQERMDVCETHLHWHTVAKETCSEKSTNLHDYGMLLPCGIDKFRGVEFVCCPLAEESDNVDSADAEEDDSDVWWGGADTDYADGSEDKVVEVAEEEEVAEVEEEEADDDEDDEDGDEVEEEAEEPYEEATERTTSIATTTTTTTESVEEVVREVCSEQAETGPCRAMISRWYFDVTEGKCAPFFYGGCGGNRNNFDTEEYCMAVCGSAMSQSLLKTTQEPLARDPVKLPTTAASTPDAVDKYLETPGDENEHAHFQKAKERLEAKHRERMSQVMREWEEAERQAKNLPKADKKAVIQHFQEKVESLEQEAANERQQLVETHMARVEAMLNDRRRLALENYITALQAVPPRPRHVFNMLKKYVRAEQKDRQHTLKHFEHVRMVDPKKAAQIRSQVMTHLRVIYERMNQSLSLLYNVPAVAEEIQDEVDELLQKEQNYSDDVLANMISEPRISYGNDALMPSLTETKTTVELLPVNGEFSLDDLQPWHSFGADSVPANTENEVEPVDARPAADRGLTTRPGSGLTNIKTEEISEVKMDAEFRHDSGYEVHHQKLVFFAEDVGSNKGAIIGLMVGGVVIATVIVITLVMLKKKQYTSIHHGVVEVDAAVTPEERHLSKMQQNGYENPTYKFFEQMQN

Acetylcholinesterase = Acetylcholinesterase (Homo sapiens, UniProt P22303); assay: Inhibition of human AChE using acetylthiocholine iodide as substrate assessed as reversal of enzyme activity by measuring remaining activity at 10 to 100 times IC50 incubated for 30 mins followed by dilution to 0.1 to 1 times IC50 with substrate
Chain of Acetylcholinesterase (P22303 whole entry): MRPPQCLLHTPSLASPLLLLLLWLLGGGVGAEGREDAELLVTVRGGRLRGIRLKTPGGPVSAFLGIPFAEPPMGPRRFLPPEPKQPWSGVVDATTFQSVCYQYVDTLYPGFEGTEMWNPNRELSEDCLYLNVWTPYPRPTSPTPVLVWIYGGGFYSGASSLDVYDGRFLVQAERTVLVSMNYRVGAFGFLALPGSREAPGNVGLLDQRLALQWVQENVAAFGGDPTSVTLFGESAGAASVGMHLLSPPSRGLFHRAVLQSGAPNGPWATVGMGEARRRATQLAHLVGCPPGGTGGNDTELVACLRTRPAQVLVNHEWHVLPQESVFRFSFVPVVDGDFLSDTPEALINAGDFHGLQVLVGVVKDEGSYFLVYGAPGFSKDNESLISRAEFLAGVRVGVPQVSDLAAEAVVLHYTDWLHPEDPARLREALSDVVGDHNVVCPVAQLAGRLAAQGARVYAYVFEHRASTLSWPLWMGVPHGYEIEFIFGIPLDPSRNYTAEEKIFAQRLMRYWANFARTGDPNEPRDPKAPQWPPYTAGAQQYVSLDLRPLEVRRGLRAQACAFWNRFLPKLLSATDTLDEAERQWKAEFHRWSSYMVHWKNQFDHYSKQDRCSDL

[4] = Acute toxicity in female Wistar rat assessed as histopathological changes in brain at 100 to 500 mg/kg, po measured after 14 days; assay type: organism-based; details: in vivo, 336 h, dose 100-500 mg/kg, time 14 day
Drosophila melanogaster [5] = assay: Reversal of ey-GAL4 driven UAS-amyloid beta induced cellular toxicity in Drosophila melanogaster Oregon R-positive model assessed as increase in cell viability in gut at 10 uM by MTT assay relative to control; assay type: functional
Drosophila melanogaster [6] = assay: Reversal of ey-GAL4 driven UAS-amyloid beta induced cellular toxicity in Drosophila melanogaster Oregon R-positive model assessed as increase in rescued eye phenotype at 5 uM by trinocular stereo-zoom microscope relative to control; assay type: functional
[7] = Tmax in male Wistar rat at 20 mg/kg, po measured upto 32 hrs by high-performance liquid chromatography; assay type: ADME, organism-based; details: in vivo
Rattus norvegicus = assay: Reversal of amyloid beta (1 to 42 residues) induced cognitive impairment in female Wistar rat assessed as increase in total platform crossing at 20 mg/kg, po pretreated with amyloid beta for 7 days followed by compound administration and measured after 5 days by Morris water maze test; assay type: functional, organism-based; details: time 5.0 day
Drosophila melanogaster [8] = assay: Reversal of ey-GAL4 driven UAS-amyloid beta induced cellular toxicity in Drosophila melanogaster Oregon R-positive model assessed as reduction in mild ommatidial death eye phenotype at 15 uM by trinocular stereo-zoom microscope relative to control; assay type: functional; parameters: scale not given: the % may be the effect or the level left
[9] = Acute toxicity in female Wistar rat assessed as histopathological changes in heart at 100 to 500 mg/kg, po measured after 14 days; assay type: organism-based; details: in vivo, 336 h, dose 100-500 mg/kg, time 14 day
[10] = Toxicity in Drosophila melanogaster Oregon R-positive assessed as reduction in eclosed flies at embryonic stage at 200 uM measured until 15 days relative to control; parameters: scale not given: the % may be the effect or the level left; details: 360 h, time 15 day
Drosophila melanogaster [11] = assay: Reversal of ey-GAL4 driven UAS-amyloid beta induced cellular toxicity in Drosophila melanogaster Oregon R-positive model assessed as increase in rescued eye phenotype at 15 uM by trinocular stereo-zoom microscope relative to control; assay type: functional
[12] = Acute toxicity in female Wistar rat assessed as adverse side effects at 100 to 500 mg/kg, po measured after 14 days; assay type: organism-based; details: in vivo, 336 h, dose 100-500 mg/kg, time 14 day

Chain of Beta-secretase 1 (P56817 whole entry): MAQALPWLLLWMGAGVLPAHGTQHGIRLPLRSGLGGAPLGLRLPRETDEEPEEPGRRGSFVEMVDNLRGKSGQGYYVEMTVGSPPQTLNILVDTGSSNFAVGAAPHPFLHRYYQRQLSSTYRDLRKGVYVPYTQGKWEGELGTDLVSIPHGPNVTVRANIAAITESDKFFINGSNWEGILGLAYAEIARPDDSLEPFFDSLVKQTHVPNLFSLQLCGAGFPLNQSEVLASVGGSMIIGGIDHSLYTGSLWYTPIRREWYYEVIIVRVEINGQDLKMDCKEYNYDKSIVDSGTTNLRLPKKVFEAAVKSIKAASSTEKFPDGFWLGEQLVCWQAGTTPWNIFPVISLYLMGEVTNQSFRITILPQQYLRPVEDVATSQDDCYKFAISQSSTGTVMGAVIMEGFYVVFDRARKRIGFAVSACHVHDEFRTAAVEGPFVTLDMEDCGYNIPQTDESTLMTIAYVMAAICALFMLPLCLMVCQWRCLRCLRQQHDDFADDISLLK

With `COc1cc2ncnc(N3CCN(Cc4ccccc4)CC3)c2cc1OC` the IC50 (Beta-secretase 1) was 231 nM, the Activity [1] was 26% and the concentration at 96 h [2] was 977 ng/mL. For the same molecule, the inhibition [3] was 27.3%, the Activity (Acetylcholinesterase) was > 60% and the Activity [4] was “Non-Toxic”. For the same molecule, the Activity (Drosophila melanogaster [5]) was 62%, the Activity (Drosophila melanogaster [6]) was 27% and the Tmax [7] was 3 h. For the same molecule, the Activity (Rattus norvegicus) was “Active”, the Activity (Drosophila melanogaster [8]) was 30% and the Activity [9] was “Non-Toxic”. For the same molecule, the Activity [10] was 100%, the Activity (Drosophila melanogaster [11]) was 57% and the Activity [12] was “Non-Toxic”.

Reference: ChEMBL document CHEMBL5500373, “Lead optimization based design, synthesis, and pharmacological evaluation of quinazoline derivatives as multi-targeting agents for Alzheimer's disease treatment” (Eur J Med Chem, 2024)
